Earlier results in patent publication EP2681209B1, “COMPOUNDS AND METHODS FOR THE TREATMENT OF PAIN AND OTHER DISORDERS” (Aquilus Pharmaceuticals, Inc, priority 2011, dated 2012).

Assays:
TNF-alpha = conditions: background literature; cited from earlier work
MMP-9 = MMP-9 (Homo sapiens, UniProt P14780); conditions: background literature; cited from earlier work
Sequence of MMP-9 (P14780 94-707, species assumed): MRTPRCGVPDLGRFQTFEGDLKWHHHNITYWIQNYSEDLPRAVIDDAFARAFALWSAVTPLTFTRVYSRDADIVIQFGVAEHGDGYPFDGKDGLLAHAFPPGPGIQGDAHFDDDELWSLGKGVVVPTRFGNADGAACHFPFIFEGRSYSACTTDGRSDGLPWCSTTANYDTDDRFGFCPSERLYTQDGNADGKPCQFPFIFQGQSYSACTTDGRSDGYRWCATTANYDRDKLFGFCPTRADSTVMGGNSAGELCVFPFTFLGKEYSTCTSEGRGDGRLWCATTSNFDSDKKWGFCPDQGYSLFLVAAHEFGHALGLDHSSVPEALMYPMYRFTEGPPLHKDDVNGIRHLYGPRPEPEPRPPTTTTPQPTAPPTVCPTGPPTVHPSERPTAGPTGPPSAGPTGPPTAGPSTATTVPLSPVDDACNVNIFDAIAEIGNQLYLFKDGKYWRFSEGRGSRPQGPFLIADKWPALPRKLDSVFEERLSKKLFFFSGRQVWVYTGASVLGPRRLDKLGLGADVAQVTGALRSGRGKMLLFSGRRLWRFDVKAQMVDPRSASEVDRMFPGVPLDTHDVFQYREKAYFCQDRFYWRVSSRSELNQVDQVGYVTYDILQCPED

Which results are given for `CC(C)C[C@H](CC(=O)NO)C(=O)N[C@@H](Cc1ccc2ccccc2c1)C(=O)N[C@@H](C)C(N)=O` [TAPI-0]?
IC50 (TNF-alpha): ~100 nM; IC50 (MMP-9): 0.5 nM
